Columns and labels:
[1] = tested on: human-derived breast cancer cell line MFM223; assay: Anti-tumor effect of compound A in nude mice with subcutaneously transplanted human breast cancer cell line MFM223 (tumor volume); format: in vivo, nude mice (BALB/cAJcl-nu/nu, female)
Protocol: (§1) Four nude mice (BALB/cAJcl-nu/nu, female, CLEA Japan, Inc.) per group were used to evaluate an anti-tumor effect when compound A was administered.
A human-derived breast cancer cell line MFM223 (ECACC) was subjected to preparatory conditioning. The MFM223 cells were suspended at a concentration of 2×10^8 cells/mL in HBSS (Wako Pure Chemical Industries, Ltd.). To the resulting suspension was added an equal volume of Matrigel™ matrix (Becton, Dickinson and Company, Japan), and the mixture was mixed sufficiently. Then, 0.1 mL of the mixture was subcutaneously transplanted into the right flank of each nude mouse (CAnN.Cg-Foxnlnu/Crlalj, female, Charles River Laboratories International, Inc.). During rearing, β-estradiol (Wako Pure Chemical Industries, Ltd.) prepared at a final concentration of 2.5 μg/mL in drinking water was orally administered. 46 Days after the transplantation, a tumor formed was resected and cut into small pieces. HBSS containing Type I collagenase (SIGMA) at a final concentration of 380 units/mL and Deoxyribonuclease I (SIGMA) at a final concentration of 160 K units/mL was added thereto, and the mixture was stirred at 37° C. After the mixture was made to pass through a 100-μm cell strainer (Falcon®) and centrifuged to collect the cells, those cells were cultured in 10% bovine serum-containing EMEM culture medium.
The cells as so obtained were suspended at a concentration of 1.4×10^8 cells/mL in 10% bovine serum-containing EMEM culture medium (Wako Pure Chemical Industries, Ltd.). To the resulting suspension was added an equal volume of Matrigel™ matrix (Becton, Dickinson and Company, Japan), and the resulting mixture was mixed sufficiently. Next, 0.1 mL of the mixture was subcutaneously transplanted into the right flank of each mouse, and then, the anti-tumor effect was evaluated.
20 Days after the transplantation, an electronic digital caliper (Digimatic™ Caliper; Mitutoyo Corporation) was used to measure the long and short diameters of a tumor of interest. The mice were grouped such that each group had substantially the same average of the tumor volumes. Note that each tumor volume was calculated by using the following equation:
Tumor Volume (mm^3)=Long Diameter (mm)×Short Diameter (mm)×Short Diameter (mm)/2.
(§2) Compound A as obtained in Production Example 1 was dissolved at a concentration of 0.625 mg/mL, or 2.5 mg/mL in purified water.
(§3) Then, the solution was orally administered at a dose of 20 mL/kg, i.e., 12.5 mg/kg or 50 mg/kg, once a day for 12 days to the mice of each group. Purified water was administered at 20 mL/kg to the control group.
(§4) On day 3, 7, and 12 after initiation of the administration, the tumor volume of each mouse was measured. In addition, Table 2 and FIG. 2 show changes in body weight over time.

[2] = Changes in body weight over time in MFM223 tumor-bearing nude mice; format: in vivo, nude mice (BALB/cAJcl-nu/nu, female)
Protocol: as §1, §2, §3, §4

[3] = 12.5 mg/kg orally once a day, Day 3
[4] = 12.5 mg/kg orally once a day, Day 7
[5] = 12.5 mg/kg orally once a day, Day 12
[6] = 50 mg/kg orally once a day, Day 3
[7] = 50 mg/kg orally once a day, Day 7
[8] = 50 mg/kg orally once a day, Day 12

CNC(=O)n1ccc2cc(Oc3ccnc(NC(=O)c4ccc(C5CCN(CCO)CC5)cc4)c3)c(OCCOC)cc21 [Compound A, 5-((2-(4-(1-(2-hydroxyethyl)piperidin-4-yl)benzamide)pyridin-4-yl)oxy)-6-(2-methoxyethoxy)-N-methyl-1H-indole-1-carboxamide 1.5 succinate]
Changes in tumor volume over time ([1]; 12.5 mg/kg orally once a day, Day 0 (at grouping, before treatment effect)): 151.6 mm^3
Changes in tumor volume over time [1, 3]: 139.0 mm^3
Changes in tumor volume over time [1, 4]: 143.8 mm^3
Changes in tumor volume over time [1, 5]: 148.2 mm^3
Changes in tumor volume over time ([1]; 50 mg/kg orally once a day, Day 0 (at grouping, before treatment effect)): 151.6 mm^3
Changes in tumor volume over time [1, 6]: 112.8 mm^3
Changes in tumor volume over time [1, 7]: 99.3 mm^3
Changes in tumor volume over time [1, 8]: 87.2 mm^3
Changes in body weight over time ([2]; 12.5 mg/kg orally once a day, Day 0): 21.1 g
Changes in body weight over time [2, 3]: 21.4 g
Changes in body weight over time [2, 4]: 22.6 g
Changes in body weight over time [2, 5]: 23.2 g
Changes in body weight over time ([2]; 50 mg/kg orally once a day, Day 0): 21.5 g
Changes in body weight over time [2, 6]: 22.8 g
Changes in body weight over time [2, 7]: 23.8 g
Changes in body weight over time [2, 8]: 24.0 g

— patent US20180303817A1, “THERAPEUTIC AGENT FOR BREAST CANCER” (Eisai R&D Management Co., Ltd., priority 2015, published 2018)
